Values joined by “and” are separate entries in the source; they are usually repeats but may differ in a detail not shown here. Equal entries are not always repeated.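 Cells were grown in 96-well plates and exposed to each compound for 48 hours at five concentrations; endpoints were interpolated linearly between bracketing concentrations, or set to the highest concentration if not reached. GI50: concentration for 50% inhibition of growth. The concentration for full growth arrest is given as TGI.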
Key:
Assay in all cases: inhibition of tumour cell growth, NCI panel, 48 h
786-0 renal = system: 786-0 renal
HCT-15 colon = system: HCT-15 colon
HL-60(TB) leukemia = system: HL-60(TB) leukemia
NCI-H460 lung = system: NCI-H460 lung
NCI-H522 lung = system: NCI-H522 lung
SK-MEL-2 melanoma = system: SK-MEL-2 melanoma
SN12C renal = system: SN12C renal
SNB-19 CNS = system: SNB-19 CNS
SNB-75 CNS = system: SNB-75 CNS

| Structure (SMILES) | GI50 (786-0 renal) [nM] | TGI (786-0 renal) | GI50 (HCT-15 colon) [µM] | TGI (HCT-15 colon) | GI50 (HL-60(TB) leukemia) [µM] | TGI (HL-60(TB) leukemia) | GI50 (NCI-H460 lung) [µM] | TGI (NCI-H460 lung) | GI50 (NCI-H522 lung) [µM] | TGI (NCI-H522 lung) | GI50 (SK-MEL-2 melanoma) [µM] | TGI (SK-MEL-2 melanoma) | GI50 (SN12C renal) [µM] | TGI (SN12C renal) | GI50 (SNB-19 CNS) [µM] | TGI (SNB-19 CNS) | GI50 (SNB-75 CNS) [µM] | TGI (SNB-75 CNS) |
| --- | --- | --- | --- | --- | --- | --- | --- | --- | --- | --- | --- | --- | --- | --- | --- | --- | --- | --- |
| O=[N+]([O-])c1cccc([I+]c2ccccc2)c1 | 13000 | 29.9 µM | 5.35 | 30.1 µM | 4.93 | 41.2 µM | 3.56 | 25.3 µM | 11.3 | 23.5 µM | 17.8 | 35.2 µM | 10.4 | 22.8 µM | 13.4 | 26.5 µM | 6.56 | 20.8 µM |
| O=C1CCCCCCCCCCOC(=O)CCCCCCCCCCO1 |  | > 100 µM |  | > 100 µM |  | 44.8 µM |  | > 100 µM |  | > 100 µM |  | > 100 µM |  | > 100 µM |  | > 100 µM |  | > 100 µM |
| COc1c(OC)c(OC)c(-c2cc(=O)c3c(OC)c(OC)c(OC)c(OC)c3o2)c(OC)c1OC |  | 37 µM |  | > 100 µM |  | > 100 µM |  | > 100 µM |  | 33.8 µM |  | > 100 µM |  | > 100 µM |  | > 100 µM |  | > 100 µM |
| C=C(C)C1CCC2(C(=O)O)CCC3(C)C(CCC4C5(C)CCC(O)C(C)(C)C5CCC43C)C12 (stereo not drawn) |  | 25.2 µM |  | 23.5 µM |  | 10.5 µM |  | 39 µM |  | 18.2 µM |  | 32.2 µM |  | 26.1 µM |  | 39.7 µM |  | 33 µM |
| C[C@H]1CCC2C(CN3CCCCC3)C(=O)OC2[C@]2(C)C(=O)CC(N3CCCCC3)C12O (stereo partly drawn) |  | 22.2 µM |  |  |  | 10.6 µM |  | 32.6 µM |  | 3.25 µM |  | 90.4 µM |  | 14.8 µM |  | 73 µM |  | 49.4 µM |
| COc1cc(/C=C2\CC3C4CCC5=CC(=O)CC[C@]5(C)C4CC[C@]3(C)C2=O)ccc1OCCN1CCCCC1 (stereo partly drawn) | 1920 | 4.21 µM | 3.9 | 16 µM |  |  | 3.43 | 14.1 µM | 8.95 | > 100 µM | 22 | > 100 µM | 2.79 | 9.56 µM | 6.16 | 31 µM | 6.97 | 24.8 µM |
| C1C[S][Ge]2([S]CCS1)[S]CCSCC[S]2 | > 100000 | > 100 µM | > 100 | > 100 µM | > 100 | > 100 µM |  |  | > 100 | > 100 µM | > 100 | > 100 µM | > 100 | > 100 µM |  |  | 18.9 | 95 µM |
| O=C(O)C1C2CCC(O2)C1C(=O)NCc1cccnc1 (stereo not drawn) |  | > 100 µM |  | > 100 µM |  |  |  | > 100 µM |  | > 100 µM |  | > 100 µM |  | > 100 µM |  | > 100 µM |  | > 100 µM |
| C=C(C)[C@@H]1CC[C@]2(C(=O)N3CCN(C)CC3)CC[C@]3(C)[C@H](CC[C@@H]4[C@@]5(C)CC[C@H](O)C(C)(C)[C@@H]5CC[C@]43C)[C@@H]12 | 1490 | 3.17 µM | 1.69 | 3.86 µM |  |  | 2.02 | 4.04 µM | 1.92 | 3.8 µM | 1.64 | 3.14 µM | 1.72 | 3.46 µM | 1.83 | 3.92 µM | 1.64 | 3.27 µM |
| NCCCCCCCCCn1c2c(c3ccccc3c1=O)C(=O)c1ccccc1-2 | 7720 | 15.9 µM | 6.03 | 16.2 µM | 7.97 | 19.8 µM | 2.8 | 14.2 µM | 8.83 | 24.4 µM | 15.5 | > 50 µM | 8.48 | 18.4 µM | 9.27 | 22.6 µM | 10.7 | 21.7 µM |
| C=CNC(=S)n1nc(-c2ccccc2NC(=O)C(F)(F)F)c(=O)n(C(=S)NC=C)c1=S |  | > 1 µM |  | > 100 µM |  |  |  | 47.3 µM |  | 60.5 µM |  | > 100 µM |  | > 100 µM |  | > 100 µM |  | 62.8 µM |
| O=C(Nc1nc(-c2ccccc2Cl)cs1)c1cc(-c2ccc(Cl)cc2)nc2ccc(Cl)cc12 | 2840 | 20 µM | 1.93 | 40 µM |  |  | 31.8 | > 100 µM | 3.48 | 42.6 µM | 7.81 | > 100 µM | 0.895 | 76.9 µM | 3.79 | 67.2 µM | 3.38 | > 100 µM |
| COc1cccc(/C=C2\CCc3ccccc3C2=O)c1 | 18200 | 39.9 µM | 10.5 | 49.4 µM | 21.9 | 67.4 µM | 17 | 35 µM | 4.09 | 22.3 µM | 12.9 | 28.2 µM | 15.8 | 40.2 µM | 12.4 | 26.7 µM | 16.9 | 36 µM |
| CN(CCCCN)c1ccc2c(=O)[nH][nH]c(=O)c2c1 |  | > 100 µM |  | > 100 µM |  | > 100 µM |  | > 100 µM |  | > 100 µM |  | > 100 µM |  | > 100 µM |  |  |  | > 100 µM |
| CSc1nc(SC)c2c(C)cn(C3OC(C)C(O)C(O)C3O)c2n1 (stereo not drawn) |  | > 100 µM |  | > 100 µM |  | > 100 µM |  | > 100 µM |  | > 100 µM |  | > 100 µM |  | > 100 µM |  | > 100 µM |  | > 100 µM |
| COc1ccc(/C=C/C(=O)c2ccccc2)cc1OC | 14600 | 17.9 µM and 33.7 µM | 5.23 | 34.9 µM and 24.8 µM | 14.6 | 61.2 µM and > 100 µM | 14.3 | 32.5 µM and 37.5 µM | 4.18 | 31.5 µM and 19.6 µM |  | 32.2 µM and 35.3 µM | 13.1 | 30.6 µM and 29 µM |  | 24.6 µM and 26.7 µM | 16.7 | 28.9 µM and 35.1 µM |
| O=C(O)c1c[nH]c2c(ccc3[nH]cc(C(=O)O)c(=O)c32)c1=O |  | > 100 µM |  | > 100 µM |  | > 100 µM |  | > 100 µM |  | > 100 µM |  | > 100 µM |  | > 100 µM |  | > 100 µM |  | 75 µM |
| NNc1ncnc2cccc(Cl)c12 |  | > 100 µM |  | > 100 µM |  | > 100 µM |  | > 100 µM |  | > 100 µM |  |  |  | > 100 µM |  | > 100 µM |  | > 100 µM |
| ClCc1ccc(-c2ccc(Cn3cnc4c(Cl)ncnc43)cc2)cc1 | 1620 | 2.97 µM | 1.9 | 4.47 µM | 2.18 | 5.59 µM | 0.486 | 2.65 µM | 4.01 | > 100 µM | 3.7 | > 100 µM | 1.64 | 3.69 µM | 2.59 | 8.1 µM |  |  |
| CC(C)(N)C(=O)N[C@@H]1C(=O)N2[C@@H]1SC(C)(C)[C@@H]2C(=O)O |  | > 100 µM |  | > 100 µM |  |  |  | > 100 µM |  | > 100 µM |  | > 100 µM |  | > 100 µM |  | > 100 µM |  | > 100 µM |
| Nc1nc(-c2ccc3ccccc3c2)cc(-c2cc(-c3ccc4ccccc4c3)nc(N)n2)n1 |  | > 100 µM |  | > 100 µM |  | > 100 µM |  | > 100 µM |  | > 100 µM |  | > 100 µM |  | > 100 µM |  | > 100 µM |  |  |
| CN1c2ccccc2S(=O)(=O)n2c(COc3ccccc3)nnc21 |  | > 100 µM |  | > 100 µM |  | > 100 µM |  | > 100 µM |  | > 100 µM |  | > 100 µM |  | > 100 µM |  | > 100 µM |  |  |
| O=c1sc(-c2nc3ccccc3[nH]2)c(/N=C/c2ccccc2)n1-c1ccccc1 |  | > 100 µM |  | > 100 µM |  | > 100 µM |  |  |  | > 100 µM |  | > 100 µM |  | > 100 µM |  | > 100 µM |  | 57.8 µM |
| Cn1cc(-c2ccc3nnc(C(F)(F)c4ccc5ncccc5c4)n3n2)cn1 | 46000 | > 100 µM | 73 | > 100 µM | > 100 | > 100 µM | 59.6 | > 100 µM |  |  | 50.6 | > 100 µM | 35.4 | > 100 µM | 53.4 | > 100 µM | 22.2 | > 92.4 µM |
| C=C1CCC2(C(C)=O)COC1(C)O2 (stereo not drawn) |  | > 100 µM |  | > 100 µM |  | > 100 µM |  | > 100 µM |  | > 10 µM |  |  |  | > 100 µM |  | > 100 µM |  | > 100 µM |
| CCOC(=O)Nc1cc(-c2ccc(C)c(NS(C)(=O)=O)c2)nn2c(C)nnc12 | 2640 | > 100 µM | 1.26 | 10.3 µM | 0.334 | 2.71 µM | 2.04 | > 100 µM | 0.381 | 3.22 µM |  |  | 2.06 | 58.5 µM | 0.799 | > 100 µM | 0.477 | 9.13 µM |
| COc1cc(OC)c(/C=C/C(=O)c2c(O)cc(OC)c(C3CCN(C)CC3)c2OC)c(OC)c1 | 1420 | 2.72 µM | 1.31 | 2.8 µM | 2.17 | 3.99 µM |  |  | 1.86 | 3.31 µM | 1.78 | 3.24 µM |  |  | 1.78 | 3.81 µM | 1.39 | 2.86 µM |
| Cc1ccnc(NC(c2ccccc2)c2ccc3cccnc3c2O)c1 (stereo not drawn) | 2930 | 35.1 µM | 3.35 | > 100 µM | 1.7 | 5.4 µM | 2.16 | 6.34 µM |  |  |  |  | 5.27 | > 100 µM | 6.28 | > 100 µM | 21.1 | > 100 µM |

Source: PubChem BioAssay (NCI)
